From a melting point compilation (Tetko et al.; mined from patent text by program, amines drawn as free bases though some values may be those of a salt)

SMILES | melting point
COc1cc(CCC(=O)Nc2cccc(C(=O)O)c2)ccc1O | 218 to 220 °C
CC(=O)ONc1nc(CC(=O)Nc2cccc(C(F)(F)F)c2)cs1 | 137 to 140 °C
Cc1c(-c2c(C)c3ccccc3n2S(=O)(=O)c2ccccc2)n(S(=O)(=O)c2ccccc2)c2ccccc12 | 224 °C
COc1ccc(C2=NN(C3CCN(S(=O)(=O)c4ccc(C#N)cc4)CC3)C(=O)C(C)(C)C2)cc1OC | 161 to 163 °C
Cn1ccnc1COc1ccc(-c2cc(-c3c[nH]nc3-c3ccccn3)ccn2)cc1 | 112 °C
O=C(O)c1ccccc1C(=O)c1ccc(Cl)cc1Cl | 178 to 181 °C
CC(c1cccnc1)N(c1ccc(F)cc1)S(C)(=O)=O (stereo not given) | 82 to 85 °C
Cc1ccc(NS(=O)(=O)c2ccc([N+](=O)[O-])cc2)cc1 | 170 to 172 °C
OC(c1ccccc1)c1ccc2cccnc2c1 (stereo not given) | 118 °C
CSc1cn(C)c2cc(Cl)sc2c1=O | 231 to 234 °C
CCNCCNC(=O)c1ccnc(F)c1 | 51 to 52 °C
CC1(CN2CCC(=O)CC2)Cn2cc([N+](=O)[O-])nc2O1 (stereo not given) | 124 to 126 °C
O=C(NO)[C@H](CNS(=O)(=O)c1ccc(OCc2cc(Cl)cc(Cl)c2)cc1)N1CCCCC1 | 130 °C
N#Cc1ccc(-c2ccc(OCCCCC(=O)NO)cc2)cc1 | 142 to 143 °C
Cc1[nH]c(-c2ccccc2F)c(C)c1C#N | 125 to 127 °C
O=C(NCc1ccc(Cl)cc1)c1cn2c3c(cc(CN4CCOCC4)cc3c1=O)CN(Cc1ccccc1)C2=O | 201 to 204 °C
O=C(Nc1ccc(OC(F)(F)F)cc1)NC1CCN(C(=O)c2ccc(Cl)nc2)CC1 | 208 to 209 °C
CN(C)c1ccc(C(=CC=CC2N(C)c3ccccc3C2(C)C)c2ccc(N(C)C)cc2)cc1 (stereo not given) | 182 to 183 °C
Clc1nc(Cl)c2occc2n1 | 107 °C
O=c1c(-c2ccccc2)ccc2n1CCc1sccc1-2 | 187 to 189 °C
O=C1CC(c2ccccc2)(c2ccncc2)Oc2ccccc21 (stereo not given) | 123 to 130 °C
Fc1cc(F)c(CN2CCNc3ncc(I)cc32)cc1F | 154 to 156 °C
CC1(C)CCC(C)(C)c2cc(O)c(N)cc21 | 225 °C
Cc1oc(-c2ccccc2)nc1COc1ccc(COc2cccnc2CO)cc1 | 118 to 119 °C

SMILES | melting point
CN(C)c1c(Cl)nc(-c2ccccc2)nc1Cl | 49 to 50 °C
CCOC(=O)C(=O)Nc1ncccc1C#N | 95 to 97 °C
O=C(CC1CC1)N[C@H]1CC[C@H](CCN2CCN(c3nccc4c3OCC4)CC2)CC1 | 198 °C
CCn1cc(C(=O)O)c(=O)cc1-c1ccc(OC)c(OC)c1 | 232 to 234 °C
CCOC(=O)C(C(=O)OCC)=C1CN(C)C(=O)c2ccccc2N1 | 139 °C
Cc1cc(C)c2c(=O)c(N)coc2c1 | 120 to 121 °C
Cc1ccc(C(F)C(F)(F)S(=O)(=O)c2ccccc2)cc1 (stereo not given) | 80 to 82 °C
COc1ccc(NC(=O)c2ccc(C)cc2O)cc1 | 185 to 186 °C
Cc1c(Cl)cccc1N=Cc1ccc(Cl)cc1 | 79 to 81 °C
NS(=O)(=O)c1ccc(N2CN(c3ccccc3)CC2=O)cc1Cl | 257 to 259 °C
Cc1cc2c(-c3ccccc3)c(NC(=O)N(C)Cc3ccccc3)n(C)c(=O)c2cc1C | 174 to 176 °C
CN1CCN(S(=O)(=O)c2cccc(NC(=O)c3cnn4c(C(F)(F)F)cc(-c5ccc(Cl)cc5)nc34)c2)CC1 | 195 °C
CCOC(=O)c1cc(-n2c(=O)cc(C)n(C)c2=O)ccc1Cl | 120 to 122 °C
CN(C(=O)c1ccc2nonc2c1)[C@H]1CC[C@@H](C#N)CC1 | 180 to 181 °C
CC(C)(C)OC(=O)Nc1cc(OCC2COC(C)(C)O2)c(C#Cc2ccccc2)cc1NC(=O)CC(=O)c1cccc(C#N)c1 (stereo not given) | 132 to 134 °C
O=[N+]([O-])c1cc(C(F)(F)F)ccc1N1CCc2ccccc21 | 89 to 92 °C
O=C(CCCCCCCCC(=O)OC1CC(c2ccccc2)N(O)C(c2ccccc2)C1)OC1CC(c2ccccc2)N(O)C(c2ccccc2)C1 (stereo not given) | 138 to 158 °C
Oc1cnn(-c2ccc(Cl)cc2)c1 | 127 to 128 °C
CC(C)NC(=O)Cc1cccc(N)c1 | 93 to 95 °C
CC(=NO)c1ccc(Cl)c(S(N)(=O)=O)c1 | 157 to 158 °C
Cc1nnc(-c2ccc3occ(-c4ccc(OS(=O)(=O)C(F)(F)F)cc4)c3c2)o1 | 136 to 137 °C
CCN(C)c1ccc(C(=O)c2ccc(N(C)CC)cc2)cc1 | 122 to 124 °C
O=c1ccc2c(-c3ccccc3)nccc2[nH]1 | 261 to 263 °C
Cc1ccccc1-c1cc(N2CCN(C)CC2)ncc1N(C)C(=O)C(C)(C)c1cc(C(F)(F)F)cc(C(F)(F)F)c1 | 155 to 157 °C

SMILES | melting point
CC(C)C[C@H](NC(=O)OC(C)(C)C)C(=O)N[C@@H](C(C)C)[C@@H](O)c1c(-c2ccc(F)cc2)c1=O | 90 to 96 °C
Sc1nnc2c3ccccc3cnn12 | 270 to 280 °C
CCN1CCc2c(c(Br)cc([N+](=O)[O-])c2NC(C)=O)C1 | 168 °C
CC(C)OC(OC(C)C)(O[C@H](C)Cn1cnc2c(Cl)nc(N)nc21)P(=O)(O)O | 130 to 132 °C
CCc1c(-c2ccc(OCc3ccccc3)cc2)c2c(COCCCCCN3CCCCC3)cc3c(OCc4ccccc4)ccc1n32 | 106 to 107 °C
CCOCC(=O)c1nc2c(Cl)cc(F)c(-n3c(=O)cc(C(F)(F)F)n(C)c3=O)c2o1 | 56 to 58 °C
NN=C1C(=O)Nc2cccc(Cl)c21 | 235 to 236 °C
CCc1cccc(Nc2ncnc3cc(OCc4ccccc4)c(OCCOC)cc23)c1 | 156 to 157 °C
CC(C)c1cccc(C(C)C)c1NC(=O)Nc1ccc(-c2ccccc2)nc1-c1ccccc1 | 206 to 208 °C
Cc1c(C(=O)Nc2ccc(N(CCO)CCO)c(C#N)c2)cnn1-c1ccc(F)cc1 | 158 to 159 °C
O=C1c2ccccc2CN1c1ccc(OCCN2CCN(c3nsc4ccccc34)CC2)cc1 | 166 to 167 °C
COc1cc(N2CCC(N3CCN(C)CC3)CC2)ccc1N | 94 to 99 °C
CCN(CC)c1ccc([PH](=O)c2ccc(N(CC)CC)cc2)cc1 | 129 °C
CC(=O)Nc1nc(CCc2ccc(CO)cc2)c(Cc2ccc(S(C)(=O)=O)cc2)s1 | 210 to 211 °C
COc1c(C)cc(C)cc1C(N)=O | 109 to 113 °C
CC(C)COc1ccc(COc2ccc(CC(=O)O)cc2Cl)cc1Cl | 128 to 129 °C
CCOC(=O)c1ccc(-c2ccsc2)nc1C(=O)OCC | 100 to 102 °C
CN(C(CCn1c(=O)cc(Cl)[nH]c1=O)C(=O)NO)S(=O)(=O)c1ccc(Oc2ccncc2)cc1 (stereo not given) | 163 to 165 °C
Cc1c(-c2ccc(F)cc2)oc2c(-c3ccc(S(C)(=O)=O)cc3)c(-c3ccc(F)cc3)nn12 | 289 to 291 °C
CC(=O)N1N=C(c2ccc(N)c(C)c2)c2cc(Cl)ccc2C=C1C | 209 to 211 °C
CCc1c(Sc2cc(Cl)cc(Cl)c2)c(CC#N)nn1CCO | 84 to 85 °C
C=CCSc1nc2ccc(OCC)cc2[nH]1 | 147 to 149 °C
